Our source for the logD values is the SangsterLogP compilation.

The data set is described as follows: method code SF-AS, from DOI: 10.1002/zfch.19860260715. The note with it: pH 7.4.
The molecule `CC(=O)NNC(=O)Nc1ccc(C(C)(C)C)cc1` showed a logD of 2.14.

In the case of `CC(=O)NNC(=O)Nc1ccc(C)cc1`, the logD was found to be 0.76.

`CC(=O)NNC(=O)Nc1ccc(C#N)cc1`: the logD worked out at 0.37.

The molecule `COc1ccc(NC(=O)NNC(C)=O)cc1` gave a logD of 0.06.

In turn, `COc1cccc(NC(=O)NNC(C)=O)c1` yielded a logD of 0.39.

The molecule `CC(=O)NNC(=O)Nc1cccc(C(F)(F)F)c1` returned a logD of 1.63.

Turning to `CC(=O)NNC(=O)Nc1ccc(Oc2ccccc2)cc1`, the logD was 2.09.

`CCOc1ccc(NC(=O)NNC(C)=O)cc1` came in with a logD of 0.55.

Regarding `CC(=O)NNC(=O)Nc1ccc(N(C)C)cc1`, the logD is 0.11.

For the molecule `CC(=O)NNC(=O)Nc1cccc(C)c1`, the logD came out at 0.77.
